# Experimental data published in publication PMC9481026 (PLoS ONE, 2022).
# Like-named read-outs stand apart in the source and are kept apart here.
# Columns and labels:
# RVFV MP-12 = test: microbe, parasite or virus in culture; format: cell-based, Rift Valley fever virus; conditions: for EC50: read-out: Estimated EC50
# Human RNase H1 = target: T1, Human RNase H1 (Homo sapiens, UniProt O60930); test: biochemical
# T1 construct: made in house; host or cells: E. coli
# T1 sequence (O60930 1-286): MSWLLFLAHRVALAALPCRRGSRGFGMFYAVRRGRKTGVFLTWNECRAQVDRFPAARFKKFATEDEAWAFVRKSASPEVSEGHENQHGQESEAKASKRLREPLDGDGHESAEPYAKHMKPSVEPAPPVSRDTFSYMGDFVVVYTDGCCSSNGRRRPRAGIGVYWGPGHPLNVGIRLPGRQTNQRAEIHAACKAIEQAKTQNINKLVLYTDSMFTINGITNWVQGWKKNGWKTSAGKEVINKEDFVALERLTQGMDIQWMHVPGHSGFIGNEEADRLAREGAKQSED
# RVFV strain MP-12 [1] = test: microbe, parasite or virus in culture; format: cell-based, Rift Valley fever virus
# C. neoformans = test: microbe, parasite or virus in culture; format: cell-based; conditions: for MIC80: Cryptococcus neoformans, read-out: C. neoformans (MIC80, μM)
# Staphylo-coccus spp. = test: organism not typed; format: cell-based
# in vitro = conditions: African green monkey
# ZIKV = test: microbe, parasite or virus in culture; format: cell-based, Zika virus; conditions: Zika virus, Vero C1008, 48 h, read-out: ZIKV EC50
# LACV = test: microbe, parasite or virus in culture; format: cell-based, La Crosse virus; conditions: La Crosse virus, Vero C1008, 24 h, read-out: LACV EC50
# RVFV strain MP-12 [2] = test: microbe, parasite or virus in culture; format: cell-based, Rift Valley fever virus; conditions: Rift Valley fever virus, A549, 24 h, read-out: A549 EC50
# [3] = read-out: Human RNase H1 (IC50)
# [4] = Rift Valley fever virus, Vero, 24 h
SMILES,EC50 (RVFV MP-12) [µM],IC50 (Human RNase H1; [3]) [µM],CC50 (Vero cells) [µM],"C. neoformans (MIC80, μM) (C. neoformans) [µM]",other results
CCOC(=O)c1sc(NC(=O)CSc2nnc(Cc3ccccc3)o2)c(C#N)c1C [Compound 6],> 120,–,–,–,–
"O=c1c(O)c(-c2ccc(O)c(O)c2)oc2cc(O)c(O)c(O)c12 [Compound 7, Quercetagetin]",–,–,–,–,"EC50 (RVFV MP-12; Rift Valley fever virus, Vero): > 120 µM"
NC(=O)c1c(N)sc2c1CCCCC2 [Compound 22],> 120,–,–,–,–
"CC(C)c1cccc(=O)c(O)c1 [Compound 47, β-thujaplicin, reference compound]",–,–,–,–,"EC50 (RVFV MP-12; Rift Valley fever virus, Vero): > 120 µM"
"CC(C)c1ccc(O)c(=O)cc1 [Compound 48, γ -thujaplicin, reference compound]",–,–,–,–,"EC50 (RVFV MP-12; Rift Valley fever virus, Vero): > 120 µM"
Cc1cc(O)c(=O)c(O)cc1C(=O)c1ccccc1 [Compound 111],–,48,> 120,36,EC50 (RVFV strain MP-12 [1]; read-out: RVFV (EC50)): 19 µM
Cc1cc(O)c(=O)c(O)cc1-c1ccccc1 [Compound 113],–,174,> 120,24,EC50 (RVFV strain MP-12 [1]; read-out: RVFV (EC50)): 10.3 µM
Cc1cc(O)c(=O)c(O)cc1C(=O)c1ccc(-c2ccccc2)cc1 [Compound 118],–,> 500,> 120,15,EC50 (RVFV strain MP-12 [1]; read-out: RVFV (EC50)): 11 µM
Cc1cc(O)c(=O)c(O)cc1C(=O)C1CCCCC1 [Compound 120],–,81,> 120,12,EC50 (RVFV strain MP-12 [1]; read-out: RVFV (EC50)): 15.6 µM
O=C(O)CC(=O)CC(=O)c1cccs1 [Compound 129],> 120,–,–,–,–
O=C1c2ccccc2C(=O)N1O [Compound 138],> 120,–,–,–,–
COC(=O)c1c(C)cc(O)c(=O)c(O)c1O [Compound 196],–,408,> 120,–,"Staphylo-coccus spp. (MIC80, μM) (Staphylo-coccus spp.): 67 µM; CC50 (HepDES19): 6 µM; EC50 (RVFV strain MP-12 [1]; read-out: RVFV (EC50)): 23.9 µM"
CC1=CC(O)N(O)C(O)=C1C(C)=Nc1ccccc1N (stereo not drawn) [Compound 208],14,194,> 120,30,CC50 (HepDES19): 14.4 µM; EC50 (RVFV strain MP-12 [1]; read-out: RVFV (EC50)): > 120 µM
Cc1ccc(O)c(=O)c(O)c1 [Compound 210],8,85,> 120,15,EC50 (RVFV strain MP-12 [1]; read-out: EC50): 11.8 µM
Cc1cc(O)c(=O)c(O)cc1-c1cccc(-c2cccc3ccccc23)c1 [Compound 234],19,–,> 120,–,–
Cc1cc(O)c(=O)c(O)cc1C(=O)c1ccc(-c2ccncc2)cc1 [Compound 260],–,277,> 120,50,CC50 (HepDES19): 45 µM; EC50 (RVFV strain MP-12 [1]; read-out: RVFV (EC50)): 31.6 µM
O=c1c(O)ccc(-c2ccco2)cc1O [Compound 265],–,57,> 120,11,"Staphylo-coccus spp. (MIC80, μM) (Staphylo-coccus spp.): 30 µM; EC50 (RVFV strain MP-12 [1]; read-out: RVFV (EC50)): 15.4 µM"
Cc1cc(O)c(=O)c(O)cc1S(=O)(=O)c1ccccc1 [Compound 336],–,–,–,–,"IC50 (Human RNase H1): 85 µM; CC50 (Vero cells; African green monkey): 65.8 µM; EC50 (RVFV strain MP-12 [1]; [4]): 9 µM; CC50 (in vitro; CC50): 70 µM; MIC80 (C. neoformans): 50 µM; EC50 (RVFV MP-12; Rift Valley fever virus, Vero): 3 µM"
Cc1ccc(/C=C/C(=O)c2ccccc(=O)c2O)cc1 [Compound 340],3,> 500,70,49,CC50 (HepDES19): 18.7 µM; EC50 (RVFV strain MP-12 [1]; read-out: EC50): 27.3 µM
O=C(/C=C/c1cccc(Br)c1)c1ccccc(=O)c1O [Compound 341],–,–,–,–,"MIC80 (Staphylo-coccus spp.; read-out: Staphylo-coccus spp. (MIC80, μM)): 44 µM; IC50 (Human RNase H1): > 500 µM; EC50 (RVFV strain MP-12 [1]; [4]): 25.2 µM; CC50 (in vitro; CC50): > 120 µM; MIC80 (C. neoformans): 24 µM; EC50 (RVFV MP-12; Rift Valley fever virus, Vero): 2 µM"

SMILES,EC50 (RVFV MP-12) [µM],IC50 (Human RNase H1; [3]) [µM],CC50 (Vero cells) [µM],"C. neoformans (MIC80, μM) (C. neoformans) [µM]",other results
COc1ccc(/C=C/C(=O)c2ccccc(=O)c2O)cc1 [Compound 342],2,> 500,> 120,24,CC50 (HepDES19): 30.4 µM; EC50 (RVFV strain MP-12 [1]; read-out: EC50): 55.5 µM
CSc1cccc(O)c(=O)c1O [Compound 385],–,176,> 120,24,CC50 (HepDES19): 100 µM; EC50 (RVFV strain MP-12 [1]; read-out: RVFV (EC50)): 25.2 µM
CC(=Nc1ccccc1F)c1c(C)cc(=O)n(O)c1O [Compound 516],19,–,> 120,–,–
COc1ccc(CON=C(C)c2c[nH]c(=O)[nH]c2=O)cc1 [Compound 522],> 1,–,1,–,–
Cc1cc(O)c(=O)c(O)cc1C(=O)NCc1ccc(-c2ccccc2)cc1 [Compound 539],10,105,–,4.5,"Staphylo-coccus spp. (MIC80, μM) (Staphylo-coccus spp.): 38 µM; CC50 (HepDES19): 3.6 µM; EC50 (RVFV strain MP-12 [1]; read-out: EC50): 18.6 µM"
COc1ccc(Cl)cc1C(=O)Sc1cccccc1=O [Compound 681],> 2,–,2,–,–
CCCCCCS(=O)(=O)c1ccc(S(=O)(=O)CCCCCC)c(O)c(=O)c1O [Compound 700],–,–,–,–,"CC50 (in vitro; Estimated CC50): > 120 µM; Estimated EC50 (RVFV MP-12): inactive; EC50 (RVFV MP-12; Rift Valley fever virus, Vero): > 120 µM"
O=c1c(O)c(SCc2ccccc2)ccc(SCc2ccccc2)c1O [Compound 703],9,61,–,7.0,"Staphylo-coccus spp. (MIC80, μM) (Staphylo-coccus spp.): 13 µM; CC50 (HepDES19): 8.2 µM; EC50 (RVFV strain MP-12 [1]; read-out: EC50): 16.1 µM"
Cc1cc(O)c(=O)c(O)cc1C(=O)NCCc1ccccc1 [Compound 710],17,–,> 120,–,–
Cc1cc(O)c(=O)c(O)cc1C(=O)Nc1ccc(F)cc1F [Compound 711],17,–,> 120,–,–
Cc1cc(O)c(=O)c(O)cc1C(=O)N1CCSC1 [Compound 712],> 20,–,20,–,–
Cc1cc(O)c(=O)c(O)cc1C(=O)Nc1cccc(Cc2ccccc2)c1 [Compound 799],17,–,62,–,–
Cc1ccc(CNC(=O)c2cc(O)c(=O)c(O)cc2C)c(C)c1 [Compound 809],17,–,64,–,–
Cc1cc(O)c(=O)c(O)cc1C(=O)Nc1cccc(OCc2ccccc2)c1 [Compound 836],13,–,> 120,–,–
Cc1ccc(Sc2cccc(O)c(=O)c2O)cc1 [Compound 838],8,100,–,1.0,CC50 (HepDES19): 18.6 µM; EC50 (RVFV strain MP-12 [1]; read-out: EC50): 12.7 µM
Cc1cc(O)c(=O)c(O)cc1C(=O)N[C@@H](CCC(=O)OC(C)(C)C)C(=O)OC(C)(C)C [Compound 867],–,–,–,–,"EC50 (RVFV strain MP-12 [1]; [4]): 8.7 µM; EC50 (RVFV strain MP-12 [1]; Rift Valley fever virus, Vero, read-out: Vero EC50): 8.7 µM; CC50 (in vitro; CC50): > 120 µM; CC50 (in vitro; Vero CC50): > 120 µM; MIC80 (C. neoformans): 9 µM; EC50 (ZIKV): > 120 µM; EC50 (LACV): > 120 µM; EC50 (RVFV MP-12; Rift Valley fever virus, Vero): 6.66 µM; EC50 (RVFV strain MP-12 [2]): 33 µM"
Cc1cc(O)c(=O)c(O)cc1C(=O)N1CCN(C(=O)C2COc3ccccc3O2)CC1 (stereo not drawn) [Compound 876],–,–,> 120,–,–
Cc1cc(O)c(=O)c(O)cc1C(=O)N1CCN(c2ccc([N+](=O)[O-])c3nonc23)CC1 [Compound 920],19,–,> 120,–,–
Cc1cc(O)c(=O)c(O)cc1C(=O)NCc1ccc(N2CCCC2)cc1 [Compound 1019],19,–,> 120,–,–
